# Results reported in patent EP4368729A1, “MOLECULES TARGETING RIBOSOMAL PROTEIN RPL40 FOR USE IN COSMETICS AND THE TREATMENT OF DISEASES OF THE SKIN” (Merck Patent GmbH, priority 2022, dated 2024).
# Entries after “also recorded” stand apart in the source; their conditions may differ.
# Target: T1, rpL40 (Saccharomyces cerevisiae, UniProt P0CH08)
# T1 construct: endogenous in cells; host or cells: S. cerevisiae diploid strain (BY2n / BY4743 background) co-transformed with the TE-FF and REN reporter plasmids
# Experiment: Biological activity of prospective L40 binders: tropoelastin-firefly / renilla dual luciferase reporter in yeast cells
# Format: cell-based
# Conditions: treatment at 1nM, 10nM, 100nm, 1µM, 10µM and 100µM; replicates n=3; Figs. 3-5
# Procedure: The present invention will now be described further in the following examples with reference to the accompanying Figures, nevertheless, without being limited thereto. […] The wildtype (abbreviated WT) is shown as a red dot. […] Replicates n=3, and treatment was made at 1nM, 10nM, 100nm, 1µM, 10µM, and 100µM concentration of compounds.
# Wildtype (BY2n) and variant ribosomal protein yeast strains (Kelly DE, Lamb DC, Kelly SL. Genome-wide generation of yeast gene deletion strains. Comp Funct Genomics. 2001;2(4):236-42. doi: 10.1002/cfg.95. PMID: 18628917; PMCID: PMC2447215), that were co-transformed with the tropoelastin-firefly and the renilla protein expression reporter plasmids were used for overnight cultures using single colony inoculation. Cell density (OD600) was determined using a Hitachi U_3000 spectrophotometer. […]
# Dual luciferase assay readouts were performed with the GloMax Multi Detection System using the Dual-Luciferase® Reporter Assay System (Promega). For each dual luciferase luminescence measurement, 50 µl of a cell culture (5×10^5 cells) were transferred into a 96-well plate and lysed through addition of 20 µl passive lysis buffer (Promega) for one minute, following the instruction of the supplier. FF luminescence readout was detected upon addition of 50 µl of LAR II substrate, and then REN luminescence signal was recorded after the addition of 50 µl Stop & Glo® substrate. […]
# T1 sequence (P0CH08 77-128): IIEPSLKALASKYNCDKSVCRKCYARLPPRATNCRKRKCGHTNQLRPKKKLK
structure (smiles),measurement,value
CCCC(Oc1cccc(C(=N)N)c1)C(=O)Nc1ccc2c(c1)S(=O)(=O)c1ccccc1-2 (stereo not shown) [Compound 22],translation in yeast cells,decreasing translation; also recorded: lowered translation
